In experiment [1] the target is T1, hP2X2/3H (Homo sapiens, UniProt P56373+Q9UBL9).
T1 construct: expressed in transfected cells
T1 sequence (P56373 1-397): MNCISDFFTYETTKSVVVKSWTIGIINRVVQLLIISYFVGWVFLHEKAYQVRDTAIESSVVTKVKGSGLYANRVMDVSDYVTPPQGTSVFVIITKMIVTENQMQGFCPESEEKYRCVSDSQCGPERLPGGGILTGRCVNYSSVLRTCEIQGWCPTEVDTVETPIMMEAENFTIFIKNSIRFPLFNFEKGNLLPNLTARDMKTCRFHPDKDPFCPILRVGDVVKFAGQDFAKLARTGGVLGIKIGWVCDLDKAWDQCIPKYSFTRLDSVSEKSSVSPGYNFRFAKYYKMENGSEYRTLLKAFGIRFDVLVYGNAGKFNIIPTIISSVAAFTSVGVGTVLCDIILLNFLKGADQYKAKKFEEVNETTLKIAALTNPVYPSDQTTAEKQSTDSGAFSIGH
T1 sequence (Q9UBL9 1-471): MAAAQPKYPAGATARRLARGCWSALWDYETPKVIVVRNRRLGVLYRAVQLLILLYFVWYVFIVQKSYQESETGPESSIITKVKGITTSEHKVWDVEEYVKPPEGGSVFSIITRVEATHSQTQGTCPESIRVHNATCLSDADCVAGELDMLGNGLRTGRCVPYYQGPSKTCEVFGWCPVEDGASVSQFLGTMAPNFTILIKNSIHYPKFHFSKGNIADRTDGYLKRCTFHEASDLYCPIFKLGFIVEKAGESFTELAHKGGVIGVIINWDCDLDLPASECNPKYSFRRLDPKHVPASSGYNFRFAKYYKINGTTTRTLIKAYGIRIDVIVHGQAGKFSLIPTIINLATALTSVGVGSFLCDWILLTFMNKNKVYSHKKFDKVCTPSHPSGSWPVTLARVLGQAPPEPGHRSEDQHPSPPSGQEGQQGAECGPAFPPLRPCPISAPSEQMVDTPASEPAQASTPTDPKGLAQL
Briefly: Calcium uptake assay (Ca influx), P2X antagonist assay, P2X2/3 heteromer. The class given is cell-based. The following applies: inhibition of agonist-induced calcium influx. The method in brief:
(§1)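 Receptors expressed in HEK293 or 1321N1 cells, transiently or stably; heteromer from P2X3 transfected into P2X2-stable line. Fluo-4-type dye in HBSS; compound pre-treatment 1–30 min, then agonist (αβMeATP, ATP or analog) at EC50-90. FLIPR peak minus baseline fluorescence; IC50 by 4-parameter fit, 1 pM–10 μM.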

Experiment [2] concerns the target T2, hP2X3 (Homo sapiens, UniProt P56373).
T2 construct: expressed in transfected cells
T2 sequence (P56373 1-397): T1 sequence (P56373 1-397)
The experiment can be described thus: Calcium uptake assay (Ca influx), P2X antagonist assay, P2X3 homomer. Format: cell-based. The following applies: inhibition of agonist-induced calcium influx. The method in brief: as §1

Usually IC50 stands for the midpoint of a concentration-inhibition curve.

Turning to `Cc1ccc(-c2cc(C(=O)NCc3ccc(C)nc3)cc(-c3ccc(C)cc3C#N)c2)nc1` [Compound 35, 2′-Cyano-4′-methyl-5-(5-methyl-pyridin-2-yl)-biphenyl-3-carboxylic acid (6-methyl-pyridin-3-ylmethyl)-amide], the 50% inhibitory concentration (IC50) in experiment [1] was found to be 35.6 nM; in experiment [2] it was 50.8 nM.

Consider `Cc1ccc(-c2cc(C(=O)NCc3ccc(C)nc3)cc(-c3ccccc3CN(C)C)c2)nc1` [Compound 28, 2′-Dimethylaminomethyl-5-(5-methyl-pyridin-2-yl)-biphenyl-3-carboxylic acid (6-methyl-pyridin-3-ylmethyl)-amide], for which the IC50 in experiment [1] was found to be 83.5 nM; in experiment [2], 66 nM.

Take `Cc1ccc(-c2cc(C(=O)N[C@H](C)c3cnc(C)nc3)cc(-c3ccccc3CO)c2)nc1` [Compound 34, 2′-Hydroxymethyl-5-(5-methyl-pyridin-2-yl)-biphenyl-3-carboxylic acid [(R)-1-(2-methyl-pyrimidin-5-yl)-ethyl]-amide]: the results for the half-maximal inhibitory concentration (IC50) in experiment [1] and in experiment [2] were 18.4 nM and 21.1 nM, respectively.

As to `Cc1ccc(-c2cc(C(=O)NCc3ccc(C)nc3)cc(-c3ccccc3CO)c2)cc1` [Compound 8, 2″-Hydroxymethyl-4-methyl-[1,1′;3′,1″]terphenyl-5′-carboxylic acid (6-methyl-pyridin-3-ylmethyl)-amide], the half-inhibitory concentration (IC50) stood at 116 nM in experiment [1] and 182 nM in experiment [2].

For the molecule `Cc1ccc(-c2cc(C(=O)NCc3ccc(C)nc3)cc(N3CCCC3=O)c2)cc1` [Compound 49, 4′-Methyl-5-(2-oxo-pyrrolidin-1-yl)-biphenyl-3-carboxylic acid (6-methyl-pyridin-3-ylmethyl)-amide], the IC50 is 205 nM in experiment [1] and 34.1 nM in experiment [2].

On to `Cc1ccc(-c2cc(C(=O)NCc3ccc(C)nc3)cc(-c3ccccn3)c2)nc1` [Compound 32, 3-(5-Methyl-pyridin-2-yl)-N-(6-methyl-pyridin-3-ylmethyl)-5-pyridin-2-yl-benzamide], for which the IC50 stood at 997 nM in experiment [1] and 58 nM in experiment [2].

Turning to `Cc1ccc(-c2cc(C(=O)NCc3cnc(C)nc3)cc(N3CCOCC3=O)c2)c(C#N)c1` [Compound 64, 2′-Cyano-4′-methyl-5-(3-oxo-morpholin-4-yl)-biphenyl-3-carboxylic acid (2-methyl-pyrimidin-5-ylmethyl)-amide], the figures for the IC50 in experiment [1] and in experiment [2] were 254 nM and 33.2 nM, respectively.

On to `Cc1ccc(-c2cc(C(=O)NCc3ccc(C)nc3)cc(-c3ccccc3C#N)c2)cc1` [Compound 27, 2″-Cyano-4-methyl-[1,1′;3′,1″]terphenyl-5′-carboxylic acid (6-methyl-pyridin-3-ylmethyl)-amide], for which the IC50 was 142 nM in experiment [1] and 195 nM in experiment [2].

As to `Cc1ccc(-c2cc(C(=O)NCc3ccc(C)nc3)cc(N3CCNCC3=O)c2)c(C#N)c1` [Compound 65, 2′-Cyano-4′-methyl-5-(2-oxo-piperazin-1-yl)-biphenyl-3-carboxylic acid (6-methyl-pyridin-3-ylmethyl)-amide], the IC50 in experiment [1] is 1060 nM; in experiment [2] it was 117 nM.

`Cc1ccc(-c2cc(C(=O)NCc3cnc(C)nc3)cc(N3CCCCC3=O)c2)cc1` [Compound 38]: the concentration for half-maximal inhibition (IC50) in experiment [1] is 226 nM; in experiment [2] it was 80.7 nM.

For `Cc1ccc(-c2cc(C(=O)N[C@@H](C)CO)cc(-c3cc(C(F)(F)F)ccc3C#N)c2)nc1` [Compound 79, 2′-Cyano-5-(5-methyl-pyridin-2-yl)-5′-trifluoromethyl-biphenyl-3-carboxylic acid ((S)-2-hydroxy-1-methyl-ethyl)-amide], the half-maximal inhibitory concentration (IC50) in experiment [1] came out at 444 nM; in experiment [2], 71.8 nM.

As for `Cc1ccc(-c2cc(C(=O)NCc3cnc(C)nc3)cc(N3CCCC3=O)c2)cc1` [Compound 50, 4′-Methyl-5-(2-oxo-pyrrolidin-1-yl)-biphenyl-3-carboxylic acid (2-methyl-pyrimidin-5-ylmethyl)-amide], the results for the 50% inhibitory concentration (IC50) in experiment [1] and in experiment [2] were 428 nM and 25.9 nM, respectively.

`Cc1ccc(-c2cc(C(=O)N[C@H](C)CN3CCOCC3)cc(-c3cc(C)ccc3C#N)c2)nc1` [Compound 73, 2′-Cyano-5′-methyl-5-(5-methyl-pyridin-2-yl)-biphenyl-3-carboxylic acid ((R)-1-methyl-2-morpholin-4-yl-ethyl)-amide]: the IC50 turned out to be 340 nM in experiment [1] and 104 nM in experiment [2].

In the case of `Cc1ccc(-c2cc(C(=O)N[C@H](C)c3cnc(C)nc3)cc(N3CCOCC3=O)c2)nc1` [Compound 57, 3-(5-Methyl-pyridin-2-yl)-N-[(R)-1-(2-methyl-pyrimidin-5-yl)-ethyl]-5-(3-oxo-morpholin-4-yl)-benzamide], the IC50 in experiment [1] turned out to be 527 nM; in experiment [2], 89.2 nM.

`Cc1ccc(-c2cc(C(=O)N[C@@H](C)CO)cc(N3CCCC3=O)c2)cc1` [Compound 60, 4′-Methyl-5-(2-oxo-pyrrolidin-1-yl)-biphenyl-3-carboxylic acid ((S)-2-hydroxy-1-methyl-ethyl)-amide]: the IC50 in experiment [1] is 8680 nM; in experiment [2], 207 nM.

Take `Cc1ccc(-c2cc(C(=O)NCc3ccc(C)nc3)cc(-c3ccccc3F)c2)nc1` [Compound 15, 2′-Fluoro-5-(5-methyl-pyridin-2-yl)-biphenyl-3-carboxylic acid (6-methyl-pyridin-3-ylmethyl)-amide]: the half-maximal inhibitory concentration (IC50) came out at 54.9 nM in experiment [1] and 73.2 nM in experiment [2].

Regarding `Cc1ccc(-c2cc(C(=O)NCc3cnc(C)nc3)cc(N3CCNCC3=O)c2)c(C#N)c1` [Compound 66, 2′-Cyano-4′-methyl-5-(2-oxo-piperazin-1-yl)-biphenyl-3-carboxylic acid (2-methyl-pyrimidin-5-ylmethyl)-amide], the results for the half-maximal inhibitory concentration (IC50) in experiment [1] and in experiment [2] were 729 nM and 85.8 nM, respectively.

On to `Cc1ccc(-c2cc(C(=O)N[C@H](C)c3cnc(C)nc3)cc(-c3ccccc3C(N)=O)c2)nc1` [Compound 47, 5′-(5-Methyl-pyridin-2-yl)-biphenyl-2,3′-dicarboxylic acid 2-amide 3′-{[(R)-1-(2-methyl-pyrimidin-5-yl)-ethyl]-amide}], for which the IC50 in experiment [1] was 36.8 nM; in experiment [2], 29.1 nM.

For `Cc1ccc(-c2cc(C(=O)NCc3ccc(C)nc3)cc(-c3cccnc3)c2)nc1` [Compound 20, 3-(5-Methyl-pyridin-2-yl)-N-(6-methyl-pyridin-3-ylmethyl)-5-pyridin-3-yl-benzamide], the half-inhibitory concentration (IC50) in experiment [1] came to 70.5 nM; in experiment [2] it was 38.5 nM.

For the molecule `Cc1ccc(-c2cc(C(=O)NCc3ccc(C)nc3)cc(-c3cccc(N(C)C)c3)c2)cc1` [Compound 23, 3″-Dimethylamino-4-methyl-[1,1′;3′,1″]terphenyl-5′-carboxylic acid (6-methyl-pyridin-3-ylmethyl)-amide], the results for the IC50 in experiment [1] and in experiment [2] were 4160 nM and 431 nM, respectively.

Consider `Cc1ccc(-c2cc(C(=O)NCc3ccc(C)nc3)cc(-c3ccccc3C#N)c2)nc1` [Compound 17, 2′-Cyano-5-(5-methyl-pyridin-2-yl)-biphenyl-3-carboxylic acid (6-methyl-pyridin-3-ylmethyl)-amide], for which the figures for the half-inhibitory concentration (IC50) in experiment [1] and in experiment [2] were 24.5 nM and 21.6 nM, respectively.

In the case of `Cc1ccc(-c2cc(C(=O)N[C@H](C)c3cnc(C)nc3)cc(N3CCCC3=O)c2)cc1` [Compound 48, 4′-Methyl-5-(2-oxo-pyrrolidin-1-yl)-biphenyl-3-carboxylic acid [(R)-1-(2-methyl-pyrimidin-5-yl)-ethyl]-amide], the results for the IC50 in experiment [1] and in experiment [2] were 33.2 nM and 16.5 nM, respectively.

In the case of `Cc1ccc(-c2cc(C(=O)NCc3ccc(C)nc3)cc(N3CCNCC3=O)c2)cc1` [Compound 61, 4′-Methyl-5-(2-oxo-piperazin-1-yl)-biphenyl-3-carboxylic acid (6-methyl-pyridin-3-ylmethyl)-amide], the figures for the IC50 in experiment [1] and in experiment [2] were 2350 nM and 268 nM, respectively.

Consider `Cc1ccc(-c2cc(C(=O)N[C@H](C)CN3CCOCC3)cc(-c3cnccc3C#N)c2)c(C#N)c1` [Compound 87, (R)-2′-Cyano-5-(4-cyanopyridin-3-yl)-4′-methyl-N-(1-morpholinopropan-2-yl)biphenyl-3-carboxamide], for which the IC50 is 18.6 nM in experiment [1] and 22.2 nM in experiment [2].

For `COc1ccc(-c2cc(C(=O)NCc3ccc(C)nc3)cc(-c3ccc(C)cc3)c2)cc1` [Compound 7, 4″-Methoxy-4-methyl-[1,1′;3′,1″]terphenyl-5′-carboxylic acid (6-methyl-pyridin-3-ylmethyl)-amide], the IC50 in experiment [1] was found to be 9200 nM; in experiment [2], 2460 nM.
